{
  "source": "patent US6506745B1",
  "about": "“Medicinal compositions for treatment of atrial fibrillation” (Noboru Kaneko, priority 1998, dated 2003)",
  "key": {"right atrial muscle": {"test_system": "right atrial muscle", "test": "Active potential duration (APD90) of isolated right atrial muscle under electrical stimulation", "assay_type": "cell-based, beagle", "settings": "90 minutes after adding", "procedure": "A beagle was used in the experimental test. Its right atrial. muscle was surgically extracted, and a sample was fixed with pins within an experimental vessel which is perfused with Tyrode liquid (10 ml/min). Using an electrical stimulator, the atrial muscle was stimulated by a voltage two times greater than that of generating an active potential, and rectangular waves having pulse. width of 2 msec in a frequency of 2 Hz, and the generated active potential was measured by a glass microelectrode inserted into the cells. Compound 1 was added into the experimental vessel with condensations of 0.3 μM and 1 μM. At 90 minutes before and after adding the compound, the sample was excited with various excitation frequencies, and each active potential was recorded to. determine the duration (90% recovery time; APD90)."}, "[1]": {"test_system": "atrial fibrillation induced by means of electrical stimulation", "test": "Atrial fibrillation induced by electrical stimulation in chronically paced right atrium", "assay_type": "in vivo, hybrid of a labrador and beagle", "excerpt": "In the experimental test, a hybrid of a labrador and beagle was used. An electrode for electrical excitation was embedded in the right atrium. From a week after the operation, the right atrium was subjected to a continuous pacing at an excitation frequency of 400 or 600 bpm by an external pacemaker. Further, for 31 day, the right atrium was subjected to a pacing giving a burst excitation (10 mA,50 Hz,1 sec) 5 days a week and several hours a day. Compound 1 was continuously injected into forearm vein (0.3mg/kg/min×2 min+0.03 mg/kg/min). At 20 minutes before and after administrating, the excitation current (50 Hz, 1 sec) was increased from 3 mA to 10 mA in increments of 0.5 mA to determine each atrial fibrillation threshold (AFT). Then, the atrial fibrillation duration (AF duration) and the interval (FF interval) of atrial fibrillation waves, which were generated by the excitation current of 10 mA, were measured. In FIG. 1, the mean value of the AF duration before administration was 35.1±9.0 sec, and the mean value after administration was 12.1±1.9 sec. In FIG. 2, the mean value of the FF interval before administration was 51.3±1.7 msec, and the mean value after administration was 61.7±1.8 msec."}},
  "data": [
    {"smiles": "COc1ccc2c(c1)CN(C(=O)CCN1CCC(Cc3ccccc3)CC1)CCS2", "note": "[Compound 1, 4-[3-(4-benzylpiperidine-1-yl)propionyl]-7-methoxy-2,3,4,5-tetrahydro-1,4-benzothiazepine]", "values": [
      {"measurement": "duration (APD90) change after addition", "setting": "right atrial muscle; 0.3 μM, excitation frequency 0.67 Hz", "value": "106.0 ± 2.01", "unit": "%"},
      {"measurement": "duration (APD90) change after addition", "setting": "right atrial muscle; 0.3 μM, excitation frequency 1 Hz", "value": "110.1 ± 2.75", "unit": "%"},
      {"measurement": "duration (APD90) change after addition", "setting": "right atrial muscle; 0.3 μM, excitation frequency 2 Hz", "value": "113.0 ± 1.48", "unit": "%"},
      {"measurement": "duration (APD90) change after addition", "setting": "right atrial muscle; 0.3 μM, excitation frequency 3.33 Hz", "value": "111.5 ± 10.52", "unit": "%"},
      {"measurement": "duration (APD90) change after addition", "setting": "right atrial muscle; 1 μM, excitation frequency 0.67 Hz", "value": "112.9 ± 6.47", "unit": "%"},
      {"measurement": "duration (APD90) change after addition", "setting": "right atrial muscle; 1 μM, excitation frequency 1 Hz", "value": "111.3 ± 5.34", "unit": "%"},
      {"measurement": "duration (APD90) change after addition", "setting": "right atrial muscle; 1 μM, excitation frequency 2 Hz", "value": "118.1 ± 2.88", "unit": "%"},
      {"measurement": "duration (APD90) change after addition", "setting": "right atrial muscle; 1 μM, excitation frequency 3.33 Hz", "value": "124.7 ± 9.40", "unit": "%"},
      {"measurement": "atrial fibrillation duration (AF duration), mean value after administration", "setting": "[1]; i.v. 0.3 mg/kg/min x 2 min + 0.03 mg/kg/min, 20 minutes after administrating, excitation current 10 mA, before administration 35.1±9.0 sec", "value": "12.1 ± 1.9", "unit": "s"},
      {"measurement": "interval of atrial fibrillation waves (FF interval), mean value after administration", "setting": "[1]; i.v. 0.3 mg/kg/min x 2 min + 0.03 mg/kg/min, 20 minutes after administrating, excitation current 10 mA, before administration 51.3±1.7 msec", "value": "61.7 ± 1.8", "unit": "ms"},
      {"measurement": "atrial fibrillation threshold (AFT) after administration", "setting": "[1]; i.v. 0.3 mg/kg/min x 2 min + 0.03 mg/kg/min, 20 minutes after administrating, increased from 7 mA before", "value": 10, "unit": "mA"},
      {"measurement": "extension of FF interval after administration", "setting": "[1]; i.v. infusion, excitation current 10 mA, FIG. 2", "value": "about 20%"}
    ]}
  ]
}
